# Measurements taken from patent publication US20100197616A1, “Proliferation inhibitor of helicobacter pylori including alpha-n-acetyl-glucosaminyl bond-containing monosaccharide derivatives” (THE NOGUCHI INSTITUTE, priority 2007, published 2010).
# Legend:
# H. pylori (ATCC 43504) = experiment: H. pylori-proliferation inhibitory effect (OD 600 nm versus negative control); assay type: cell-based, Helicobacter pylori
# Experimental: The effect of GlcNAc alpha-O-Et on H. pylori was confirmed according to the following procedures. Bacterial cells of H. pylori (ATCC 43504) stored in a brucella broth culture medium frozen at −80° C. were cultured in the same culture medium (3 mL) supplemented with 10% equine serum at 35° C. in the presence of 15% CO2 for 40 hours according to the shaking culture technique, the movement of bacterial cells was observed under a microscope and non-coccoid type bacterial cells of H. pylori were recovered. The culture medium was inspected for the OD values at 600 nm, followed by the dilution thereof with Muller-Hinton culture medium supplemented with 5.5% equine serum such that the number of bacterial cells present therein was equal to 4×10^7, and 3 mL thereof in total was cultured at 35° C. in the presence of 15% CO2 for 24 hours according to the shaking culture technique, followed by the confirmation by a microscope to thus give an H. pylori-containing culture medium (bacterial cell density: 2×10^7/mL) used in the test for the confirmation of the effect of the foregoing compound. On the other hand, there were prepared Muller-Hinton culture mediums (free of any bacterial cell of H. pylori) each containing 902.6 μM to 14.4 mM of the foregoing GlcNAc alpha-O-Et and supplemented with 5% equine serum, each of the resulting culture mediums was added to the foregoing H. pylori-containing culture medium in a mixing ratio of 1:1 (by volume) (total volume: 100 μL each; on a 96-well plate), followed by the mixing thereof and the subsequent cultivation at 35° C. in the presence of 15% CO2 for 96 hours. After the cultivation thereof over a predetermined period of time, the bacterial cell density thus proliferated was determined by the determination of the OD values at 600 nm, followed by the comparison of the result observed for the sample to which the candidate compound was added with that observed for the negative control free of any candidate compound (the control depicted in FIG. 1) to thus evaluate the proliferation inhibitory effect of the compound. In this respect, 1 U herein means 2.9 μmol/mL. The effect of GlcNAc alpha-cholestanol on H. pylori was confirmed according to the following procedures. Bacterial cells of H. pylori (ATCC 43504) stored in a brucella broth culture medium frozen at −80° C. were cultured in the same culture medium (3 mL) supplemented with 10% equine serum at 35° C. in the presence of 15% CO2 for 40 hours according to the shaking culture technique, the movement or behavior of bacterial cells was observed under a microscope and non-coccoid type bacterial cells of H. pylori were recovered. […]
# [1] = Decomposition in culture mediums and the stomach; settings: within the culture mediums and the stomach
SMILES,"inhibition at 180 µM (H. pylori (ATCC 43504); Helicobacter pylori, ATCC43504, at least 62.5 mU/mL (180 μM, nominal, insoluble fraction filtered off), within 1.5 to 2 days, FIG. 2) [%]",decomposition (stability) [1],proliferation ability of H. pylori (H. pylori (ATCC 43504); culture medium containing not less than 1.8 mM),inhibition of the proliferation of H. pylori (H. pylori (ATCC 43504); culture medium containing not less than 7.2 mM),"H. pylori proliferation inhibited (H. pylori (ATCC 43504); not less than 625 mU/mL (1.8 mM), FIG. 1, cultivation up to 96 hours)"
"CC(=O)NC1[C@@H](O[C@H]2CC[C@@]3(C)C(CCC4C3CC[C@@]3(C)C4CC[C@@H]3[C@H](C)CCCC(C)C)C2)OC(CO)[C@@H](O)[C@@H]1O (stereo partly drawn) [Compound 2, 3-beta-Cholestanyl-2-Acetamide-2-Deoxy-N-Acetyl-alpha-D-Glucosaminide]",40 to 50,–,–,–,–
"CCO[C@H]1OC(CO)[C@@H](O)[C@H](O)C1NC(C)=O (stereo partly drawn) [Compound 1, Ethoxy 2-acetamide-2-deoxy-N-acetyl-alpha-D-glucosaminide]",–,never decomposed,not more than 50%,completely inhibit,not less than 50%
